Laboratory results taken from PMC12583827, “Harnessing microbial-derived metabolites in the urinary tract to prevent infection induced catheter encrustation” (Nature Communications, 2025).

Experiments:
[1] = tested on: Helicobacter pylori urease; set-up: method as in earlier work; conditions: cited from earlier work
[2] = tested on: P. mirabilis urease; set-up: method as in PMID 8494373; conditions: limited concentrations tested; cited from earlier work
[3] = tested on: urease operon (ureR); set-up: method as in PMID 31921010; conditions: cited from earlier work
[4] = tested on: P. mirabilis; assay: In vitro glass “bladder” model of catheter encrustation; format: cell-based, Proteus mirabilis
Protocol: A Foley catheter is inserted aseptically into the vessel through an opening at the base, the balloon is inflated, and the catheter is attached to a catheter drainage bag (Fig. 7A). The “bladder” is supplied with sterile AUM at a physiologically relevant flow rate via peristaltic pump from a media reservoir, the “kidney” (Fig. 7A). An initial bacterial inoculum of 10^8 CFU of P. mirabilis was added to the AUM in the “bladder” inner chamber to model robust bacteriuria, followed by initiation of flow (Fig. 7B). The performance of urease-dampening metabolites was evaluated as a reduction in 1) effluent AUM pH over the 24 h study period, and 2) crystalline biofilm formation and ion precipitation on catheter segments 24 h post inoculation. Urease-dampening metabolites and AHA were introduced into the system by direct dissolution into the AUM reservoirs. For each study, both positive (untreated P. mirabilis) and negative (untreated P. mirabilis urease negative mutant) controls were included. Effluent urine samples were collected at 0, 3, 6, 9, 12 and 24 h post inoculation. This preclinical model of catheter encrustation was modified to assess whether prophylactic administration of urease-dampening metabolites increases efficacy of antimicrobials against catheter biofilms, as outlined in Fig. 9A. Each experiment was performed in triplicate. Full details of experimental set up, sample collection, and processing are provided below and in Supplementary Materials.
A previously described glass “bladder” model was used, in which a 500 mL water-jacketed glass vessel is maintained at 37 °C via a circulating water bath, a Foley catheter is inserted and inflated, and artificial urine medium (AUM) is supplied into the “bladder” at a constant flow rate (0.75-1.0 mL/min) through a peristaltic pump[55],[56]. For consistency with the in vitro urease activity assays and the physiologic range of urea in healthy human urine, AUM was supplemented with 500 mM urea[57]. Urease-dampening metabolites of interest were directly dissolved in AUM 500 mM urea, adjusted to a pH of 5.8, and filter sterilized via a 0.2μm filter. “Bladders” were inoculated with 10^8 CFUs of P. mirabilis. Samples were collected from the catheter port at 0, 3, 6, 9, 12, and 24 hours to monitor pH and bacterial CFUs. Catheters segments were processed for CFUs, crystal violet staining of biofilm biomass, and ion composition at 24 h. Full details are provided in the Supplementary Methods.
236 and the segments were air dried for 15 min. Catheter segments were stained with 1.0 ml 0.1%
237 crystal violet for 10 min, washed by gentle dunking in 1X phosphate-buffered saline (PBS) to
238 remove excess stain, and solubilized in a microcentrifuge tube containing 750μL of 1% SDS
239 95% ethanol and vortexed for 5 minutes. Crystal violet absorbance (OD570) was measured in a
240 BioTek Synergy H1 microplate reader and blanked using cell-free control wells for each biofilm
243 Catheter segment biofilm viability. Catheter segments were washed by gentle dunking in 1X
244 phosphate-buffered saline (PBS) to remove any remaining planktonic bacteria and residual AUM
245 from the catheter lumen. Catheter segments were then placed in a microcentrifuge tube
246 containing 1mL of 1X PBS and vortexed for 5 minutes to solubilize the biofilm. Samples
247 underwent serial 10-fold dilutions and were spiral plated (Eddy Jet 2; Neutec Group Inc.,
248 Farmingdale, NY) onto low-salt LB agar for enumeration of CFU using a ProtoCOL 3 automated
249 colony counter (Synbiosis).
251 Catheter segment elemental composition. Catheter segments were placed in a microcentrifuge

[5] = tested on: human gastric cancer cells (SGC-7901); conditions: cited from earlier work
[6] = tested on: lymphoblasts (K562); conditions: cited from earlier work
[7] = tested on: epithelial-like hepatocellular carcinoma cells (HepG2); conditions: cited from earlier work
[8] = cited from earlier work
[9] = 24 h, alone: 5 mM AHA, 25 mM histamine, 25 mM 4-imidazole acetate

Cc1c(OCC(F)(F)F)ccnc1C[S+]([O-])c1nc2ccccc2[nH]1 (centres unmarked) [lansoprazole]
Helicobacter pylori urease activity [1]: inhibit
P. mirabilis urease activity [2]: did not inhibit

2-Hydroxy-4-methoxybenzaldehyde
urease operon expression [3]: reduce urease operon expression

CC(=O)NO [AHA, acetohydroxamic acid, reference compound]
crystalline biofilm formation ([4]; 24 h, alone: 1.25 mM AHA, 12.5 mM histamine, 12.5 mM 4-imidazole acetate): no impact on crystalline biofilm formation
Magnesium and phosphorus precipitation on catheter segments (ICP-OES) [4, 9]: reduced, although the reduction was not statistically significant
catheter biofilm biomass (crystal violet) vs untreated P. mirabilis [4, 9]: significantly reduced biofilm biomass
pH of AUM collected from “bladders” over 24 h ([4]; alone, lower concentrations): failed to restrict pH
pH of AUM collected from “bladders” over 24 h ([4]; alone: 5 mM AHA, 25 mM histamine, 25 mM 4-imidazole acetate, nucleation point ~ pH 8): never surpassed the nucleation point
P. mirabilis CFUs in effluent over time ([4]; tested individually): no meaningful differences between CFUs over time
urease-mediated pH increase ([4]; tested individually, dose response): perturbed urease-mediated pH increase in a dose-dependent manner
decrease in viability of SGC-7901 [5]: 60-70%
decrease in viability of K562 [6]: 60-70%
decrease in viability of HepG2 [7]: 60-70%
efficacy in clinical trials [8]: showed efficacy in preventing urinary stone formation
severe side effects ([8]; in vivo): teratogenesis, hemolytic anemia, psychoneurological and muscular symptoms

COc1ccc2[nH]c([S+]([O-])Cc3ncc(C)c(OC)c3C)nc2c1 (centres unmarked) [Omeprazole]
Helicobacter pylori urease activity [1]: inhibit
P. mirabilis urease activity [2]: did not inhibit
